Source: US11407725B2 (The Board of Trustees of the University of Illinois, priority 2018, dated 2022)

Columns and labels:
[1] = system: ALDH1A2, ALDH2, ALDH3A1, ALDH4A1, and ALDH5A1; experiment: ALDH isoform selectivity of red-AlDeSense: other isoforms; format: biochemical, human; conditions: 2 μM dye
Method: Each ALDH isoform was added to a 50 mM triethanolamine solution (pH 7.4) containing 2.0 mM NAD^+ and 100 μM substrate at room temperature. Benzaldehyde was the substrate for ALDH3A1. Propanal was the substrate for all other isoforms. ALDH isoform activity was determined by monitoring the rate of NADH production through the increase in absorbance at 340 nm (ε=6220 M^−1cm^−1). For these assays, 1 unit is defined as the amount of enzyme that catalyzes the conversion of […] per minute. For every combination of dye and enzyme, 2 μM dye was preincubated with 2.0 mM NAD^+ in 50 mM triethanolamine solution (pH 7.4). The reaction was initiated by addition of 1 unit of ALDH. Dyes were excited at 590 nm, and fluorescence was measured continuously at 610 nm.

ALDH1A1 = target: T1, ALDH1A1 (Homo sapiens, UniProt P00352); experiment: ALDH1A1 kinetics; format: biochemical
T1 construct: made in house
T1 sequence (P00352 1-501): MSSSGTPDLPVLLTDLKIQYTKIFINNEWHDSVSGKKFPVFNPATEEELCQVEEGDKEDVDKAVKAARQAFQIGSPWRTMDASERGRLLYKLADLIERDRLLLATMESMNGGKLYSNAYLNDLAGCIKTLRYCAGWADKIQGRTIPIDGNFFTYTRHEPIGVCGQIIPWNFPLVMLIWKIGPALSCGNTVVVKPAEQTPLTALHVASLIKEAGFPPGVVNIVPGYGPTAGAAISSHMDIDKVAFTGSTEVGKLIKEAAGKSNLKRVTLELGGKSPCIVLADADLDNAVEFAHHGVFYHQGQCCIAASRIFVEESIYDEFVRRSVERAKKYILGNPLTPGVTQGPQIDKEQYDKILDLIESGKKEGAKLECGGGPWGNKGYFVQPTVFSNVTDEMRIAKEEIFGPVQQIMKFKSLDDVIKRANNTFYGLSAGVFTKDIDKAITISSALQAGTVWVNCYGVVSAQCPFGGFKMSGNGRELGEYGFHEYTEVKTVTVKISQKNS
Method: Solutions were prepared of 2.0 mM NAD+ and 0.1-2.5 μM AlDeSense or red-AlDeSense in 50 mM triethanolamine solution (pH 7.4). For every concentration, 1 unit of enzyme (as defined and determined in ALDH Isoform Selectivity) was added. Fluorescence was monitored for 30 seconds to determine V0. AlDeSense was excited at 490 nm and monitored at 510 nm. Red-AlDeSense was excited at 590 nm and monitored at 610 nm. Each condition was performed in triplicate. Protein concentration was determined using the Pierce™ BCA Protein Assay Kit. Data was analyzed using Microsoft Excel.

K562 cells = experiment: Flow cytometry of K562 cells stained with AlDeSense; format: cell-based, human
Method: K562 cells were resuspended in PBS to a final concentration of 100,000 cells/mL. The suspension was divided into 0.5 mL aliquots and the cells were collected by centrifugation at 1000 rpm for 5 min at 4° C. Each sample was then resuspended in premixed AlDeSense AM or Ctrl-AlDeSense AM solutions (1.5 μM, PBS). For each dye, triplicate samples were prepared. Cells were incubated with dye for 30 minutes at room temperature with rocking to prevent cell clumping and ensure even dye distribution. At the end of the incubation period, cells were again collected by centrifugation at 1000 rpm for 5 min at 4° C. The dye solution was removed by aspiration, and each sample of cells were resuspended in 0.5 mL of PBS. The samples were immediately placed on ice until analysis. The samples were analyzed by a BD LSR II Flow Cytometry Analyzer using a 488 nm laser and a FITC filter. Data analyzed on FCS Express 6.04.
The day before imaging, Nunc™ Lab-Tek™ Chamber Slide™ systems (Thermo Fisher) were coated with poly-L-lysine (Trevigen) according to manufacturer's instructions. Cells were added to the chamber slides at a concentration of 400,000 cells/mL, yielding 90% confluent cells after 24 h. […] Images were analyzed using ImageJ software (Version 1.5 in).

B16F0 melanoma cells = experiment: B16F0 melanoma confocal imaging (e-CSC vs non-CSC); format: cell-based, murine
Method: B16F0 Melanoma Confocal Imaging. B16F0 murine melanoma cells were cultured for 5 days on polyacrylamide hydrogels with or without spiral patterns as described previously (Drug Discov Today 2014, 19, 1953). The coverslips on which the hydrogels and cells were mounted were transferred to a glass-bottomed dish for confocal imaging, leaving the cells intact. Solutions of either 2 μM AlDeSense AM or 2 μM Ctrl-AlDeSense AM in PBS were added to the two types of cells. The cells were incubated at room temperature for 1 h and then immediately imaged. Confocal imaging was performed on a Zeiss LSM700 Confocal Microscope, utilizing the 488 nm laser line to excite AlDeSense AM and the 20×/0.8 objective. Three different coverslips of cells were imaged for each set of conditions and at least 6 μmages were taken for each coverslip. Using ImageJ, ROIs were drawn around areas covered with cells and mean fluorescence values were measured for each image.

Method for physchem: The fluorescence of 1 μM of each compound was measured in 40 mM Britton-Robinson buffer at pH 2-9 in 0.5 pH intervals. Each measurement was performed in triplicate. […] Error bars are ±standard deviation (SD).

| Compound | pKa (physchem) | cross-reactivity with ALDH1A2, ALDH2, ALDH3A1, ALDH4A1, ALDH5A1 [1] | higher catalytic efficiency (kcat/Km) versus AlDeSense (ALDH1A1) [fold] | brightness of stained K562 cells versus AlDeSense with inhibitor or Ctrl-AlDeSense (K562 cells) | brightness of e-CSCs versus e-CSCs treated with Ctrl-AlDeSense (B16F0 melanoma cells) [fold] | brightness of e-CSCs versus non-CSCs (B16F0 melanoma cells; both stained with AlDeSense) [fold] |
| --- | --- | --- | --- | --- | --- | --- |
| Cc1cc(C=O)c(F)c(F)c1C1=C2C=CC(=O)C=C2[Si](C)(C)c2cc(O)ccc21 | 6.68 | no cross-reactivity | 2.3 |  |  |  |
| Cc1cc(C=O)ccc1-c1c2cc(F)c(=O)cc-2oc2cc(O)c(F)cc12 [AlDeSense] |  |  |  | significantly brighter | 9.0 | 11.3 |
